Laboratory results: patent publication US8754071B2 (priority 2011, dated 2014)

target: T1, c-kit (Homo sapiens, UniProt P10721); assay: Mo7e cell proliferation assay (SCF dependent proliferation); format: cell-based; conditions: Table 1; human Mo7e cells stimulated with SCF, 48 hours, CellTiter Glo; 1% FBS; read-out: c-kit (Mo7e)
T1 construct: human Mo7e cells which endogenously express c-kit; endogenous in cells; host or cells: human Mo7e cells (promegakaryocytic leukemia line), stimulated with human recombinant SCF
Procedure: Mo7e Cell Proliferation Assay The compounds of Table 1 and Table 2 were tested for inhibition of SCF dependent proliferation using human Mo7e cells which endogenously express c-kit in a 384 well format. […] After 48 hours of incubation at 37° C., cell viability was measured by adding 25 uL of CellTiter Glo (Promega) to the cells and the luminescence was measured by a […] camera (Molecular Devices). […] The IC50 value is given as that concentration of the test compound in question that provoke a response halfway between the baseline and maximum responses.

T1 sequence (P10721 26-976): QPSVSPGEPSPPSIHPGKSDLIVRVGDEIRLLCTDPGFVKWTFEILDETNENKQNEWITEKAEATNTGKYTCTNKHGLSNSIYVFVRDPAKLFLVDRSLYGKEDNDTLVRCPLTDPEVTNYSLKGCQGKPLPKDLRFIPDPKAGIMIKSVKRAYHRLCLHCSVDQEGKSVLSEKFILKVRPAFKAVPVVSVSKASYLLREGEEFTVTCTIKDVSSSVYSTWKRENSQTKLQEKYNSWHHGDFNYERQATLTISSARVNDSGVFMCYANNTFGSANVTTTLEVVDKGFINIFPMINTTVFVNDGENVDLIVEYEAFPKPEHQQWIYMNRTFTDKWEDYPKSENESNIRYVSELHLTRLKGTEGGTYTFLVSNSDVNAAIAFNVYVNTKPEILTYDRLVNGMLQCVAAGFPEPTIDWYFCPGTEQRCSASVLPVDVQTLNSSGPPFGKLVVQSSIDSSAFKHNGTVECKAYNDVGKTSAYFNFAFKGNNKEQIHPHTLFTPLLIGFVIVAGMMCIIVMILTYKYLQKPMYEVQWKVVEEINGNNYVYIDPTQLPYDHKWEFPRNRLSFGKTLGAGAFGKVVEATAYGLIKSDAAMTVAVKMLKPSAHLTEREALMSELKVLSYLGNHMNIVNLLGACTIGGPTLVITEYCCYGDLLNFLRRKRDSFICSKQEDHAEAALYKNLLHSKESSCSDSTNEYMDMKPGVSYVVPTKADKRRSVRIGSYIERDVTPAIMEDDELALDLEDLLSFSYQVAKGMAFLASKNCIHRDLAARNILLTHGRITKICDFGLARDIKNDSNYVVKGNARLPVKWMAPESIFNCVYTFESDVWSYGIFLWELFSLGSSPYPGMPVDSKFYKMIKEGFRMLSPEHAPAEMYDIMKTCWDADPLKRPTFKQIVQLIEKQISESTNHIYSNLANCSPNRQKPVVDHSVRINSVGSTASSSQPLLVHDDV

Row | Compound | IC50 [µM]
1 | CCS(=O)(=O)N1CC(c2nc(-c3ccc(C)c(NC(=O)c4cnc5ccccn45)c3)no2)C1 [F19] | 0.033
2 | COC(=O)N1CCCCC1c1nc(-c2ccc(C)c(NC(=O)c3cnc4ccccn34)c2)no1 (stereo not shown) [F9] | 0.035
3 | Cc1ccc(-c2noc(C3CCN(S(C)(=O)=O)CC3)n2)cc1NC(=O)c1cnc2ccccn12 [F34] | 0.095
4 | COC(=O)N1CC(c2nc(-c3ccc(C)c(NC(=O)c4cnc5ccc(CCCC#N)cn45)c3)no2)C1 [F59, methyl 3-(3-(3-(6-(3-cyanopropyl)imidazo[1,2-a]pyridine-3-carboxamido)-4-methylphenyl)-1,2,4-oxadiazol-5-yl)azetidine-1-carboxylate] | 0.033
5 | CCCS(=O)(=O)N1CC(c2nc(-c3ccc(C)c(NC(=O)c4cnc5ccccn45)c3)no2)C1 [F16] | 0.035
6 | Cc1ccc(-c2noc([C@H]3CN(S(C)(=O)=O)CCO3)n2)cc1NC(=O)c1cnc2ccccn12 [F37] | 0.06
7 | Cc1ccn2c(C(=O)Nc3cc(-c4noc(N5CCC(F)(F)C5)n4)ccc3C)cnc2c1 [F92] | 0.021
8 | Cc1ccc(-c2noc(C3CCOC3)n2)cc1NC(=O)c1cnc2ccccn12 (stereo not shown) [F7] | 0.078
9 | O=C(Nc1cc(-c2noc(CN3CCC(F)(F)C3)n2)ccc1F)c1cnc2ccccn12 [F45] | 0.09
10 | COC(=O)N1CC(c2nc(-c3ccc(C)c(NC(=O)c4cnc5ccc(COCCF)cn45)c3)no2)C1 [F96] | 0.026
11 | [2H]c1ccn2c(C(=O)Nc3cc(-c4noc(C5CN(C(=O)OC)C5)n4)ccc3C)cnc2c1 [F97, methyl 3-(3-(3-(7-deuteroimidazo[1,2-a]pyridine-3-carboxamido)-4-methylphenyl)-1,2,4-oxadiazol-5-yl)azetidine-1-carboxylate] | 0.044
12 | COC(=O)N1CC(c2nc(-c3ccc(C)c(NC(=O)c4cnc5ccc(COCC(F)(F)F)cn45)c3)no2)C1 [F84] | 0.038
13 | Cc1ccc(-c2nc(N3CCC(F)CC3)no2)cc1NC(=O)c1cnc2ccccn12 [F5] | 0.034
14 | COC(=O)N1CCC(c2nc(-c3ccc(C)c(NC(=O)c4cnc5ccccn45)c3)no2)CC1 [F33] | 0.084
15 | Cc1ccc(-c2noc(C[C@@H]3CCCN3S(C)(=O)=O)n2)cc1NC(=O)c1cnc2ccccn12 [F41] | 0.092
16 | Cc1ccc(-c2nc(N3C[C@@H]4C[C@@H](C3)O4)no2)cc1NC(=O)c1cnc2ccccn12 [F3] | 0.09
17 | COC(=O)N1CC(c2nc(-c3ccc(C)c(NC(=O)c4cnn5ccccc45)c3)no2)C1 [F48] | 0.08
18 | Cc1ccc(-c2nc(N3CC(F)(F)C3)no2)cc1NC(=O)c1cnc2ccccn12 [F2] | 0.013
19 | Cc1ccc(-c2noc(C3CN(S(N)(=O)=O)C3)n2)cc1NC(=O)c1cnc2ccccn12 [F23, N-(2-methyl-5-(5-(1-sulfamoylazetidin-3-yl)-1,2,4-oxadiazol-3-yl)phenyl)imidazo[1,2-a]pyridine-3-carboxamide] | 0.088
20 | Cc1ccc(-c2noc([C@@H]3CCN3S(C)(=O)=O)n2)cc1NC(=O)c1cnc2ccccn12 [F25] | 0.046
21 | Cc1ccc(-c2noc(CN3CC(F)(F)C3)n2)cc1NC(=O)c1cnc2ccccn12 [F21] | 0.044

same assay, conditions: Table 2; human Mo7e cells stimulated with SCF, 48 hours, CellTiter Glo; 1% FBS; read-out: c-kit (Mo7e)

Row | Compound | IC50 [µM]
22 | COC(=O)N1CCC(Cc2nc(-c3ccc(C)c(NC(=O)c4cnc5ccccn45)c3)no2)CC1 [F214] | 0.142
23 | CC(C)(C)OC(=O)N1CC(c2nc(-c3ccc(F)c(NC(=O)c4cnc5ccccn45)c3)no2)C1 [F153] | 0.997
24 | Cc1ccc(-c2noc(CNC(=O)CC3CCCO3)n2)cc1NC(=O)c1cnc2ccccn12 (stereo not shown) [F145] | 0.447
25 | Cc1ccc(-c2noc(CNC(=O)C3(C)COC3)n2)cc1NC(=O)c1cnc2ccccn12 [F148] | 0.15
26 | COC1CN(Cc2nc(-c3ccc(C)c(NC(=O)c4cnc5ccccn45)c3)no2)C1 [F132] | 0.283
27 | COCC1CN(Cc2nc(-c3ccc(C)c(NC(=O)c4cnc5ccccn45)c3)no2)C1 [F182] | 0.259
28 | Cc1ccc(-c2noc([C@@H]3CC(F)(F)CN3C(=O)OC(C)(C)C)n2)cc1NC(=O)c1cnc2ccccn12 [F120] | 0.311
29 | Cc1ccc(-c2noc(C3CC[C@H](O)CO3)n2)cc1NC(=O)c1cnc2ccccn12 (stereo partly shown) [F114] | 0.183
30 | COC(=O)N1CC(c2nc(-c3ccc(C)c(NC(=O)c4cnc5ccccn45)c3C)no2)C1 [F249] | 0.426
31 | Cc1ccc(-c2noc(C3CN(S(=O)(=O)c4cccnc4)C3)n2)cc1NC(=O)c1cnc2ccccn12 [F157] | 0.153
32 | Cc1ccc(-c2noc([C@@H]3CCN3)n2)cc1NC(=O)c1cnc2ccccn12 [F136] | 0.543
33 | Cc1ccc(-c2noc(CCN3CCOCC3)n2)cc1NC(=O)c1cnc2ccccn12 [F180] | 0.169
34 | Cc1ccc(-c2nc(CCOC3CCN(Cc4ccccc4)CC3)no2)cc1NC(=O)c1cnc2ccccn12 [F100] | 0.198
35 | Cc1ccc(-c2noc(CN3CC(S(C)(=O)=O)C3)n2)cc1NC(=O)c1cnc2ccccn12 [F291] | 1.92
36 | COC(=O)N1CCC[C@@H]1c1nc(-c2ccc(C)c(NC(=O)c3cnc4ccccn34)c2)no1 [F212] | 0.17
37 | Cc1ccc(-c2noc([C@@H]3CCN3C(=O)OC3(C)CC3)n2)cc1NC(=O)c1cnc2ccccn12 [F202] | 0.208
38 | Cc1ccc(-c2noc(C3CCO3)n2)cc1NC(=O)c1cnc2ccccn12 (stereo not shown) [F263] | 0.35

Row | Compound | IC50 [µM]
39 | COC(=O)N1CC[C@H](Cc2nc(-c3ccc(C)c(NC(=O)c4cnc5ccccn45)c3)no2)C1 [F205] | 0.284
40 | Cc1ccc(-c2noc(CC3CN(S(C)(=O)=O)C3)n2)cc1NC(=O)c1cnc2ccccn12 [F178] | 0.476
41 | COC(=O)CS(=O)(=O)N1CC(c2nc(-c3ccc(C)c(NC(=O)c4cnc5ccccn45)c3)no2)C1 [F309] | > 10
42 | Cc1ccc(-c2noc(CN3CC(F)C3)n2)cc1NC(=O)c1cnc2ccccn12 [F130] | 0.127
43 | Cc1ccc(-c2noc([C@H]3COCCN3S(C)(=O)=O)n2)cc1NC(=O)c1cnc2ccccn12 [F167] | 0.102
44 | CCCCS(=O)(=O)N1CC(c2nc(-c3ccc(F)c(NC(=O)c4cnc5ccccn45)c3)no2)C1 [F219] | 0.158
45 | COC(=O)N1CC(c2nc(-c3ccc(C)c(NC(=O)c4cnc5ccc(CCC(=O)O)cn45)c3)no2)C1 [F307] | > 10
46 | Cc1ccc(-c2noc(C3CCN(C(=O)OC(C)(C)C)CC3)n2)cc1NC(=O)c1cnc2ccccn12 [F105] | 0.505
47 | CC(=O)N1CCOC[C@H]1c1nc(-c2ccc(C)c(NC(=O)c3cnc4ccccn34)c2)no1 [F275] | 1.23
48 | CC(=O)N1CCC[C@H]1c1nc(-c2ccc(C)c(NC(=O)c3cnc4ccccn34)c2)no1 [F197] | 0.46
49 | Cc1ccc(-c2noc(C[C@@H]3CCCN3)n2)cc1NC(=O)c1cnc2ccccn12 [F216] | 0.519
50 | Cc1ccc(-c2noc(CNC(=O)CC3CCOCC3)n2)cc1NC(=O)c1cnc2ccccn12 [F270] | 1.04
51 | Cc1ccc(-c2noc(C3CN(S(=O)(=O)c4c[nH]cn4)C3)n2)cc1NC(=O)c1cnc2ccccn12 [F299] | 3.52
52 | Cc1ccc(-c2noc(C3CCC(O)CO3)n2)cc1NC(=O)c1cnc2ccccn12 (stereo not shown) [F112] | 0.227
53 | COC(=O)N1CC(c2nc(-c3ccc(C)c(NC(=O)c4cnc5cc(N6CCOC6=O)ccn45)c3)no2)C1 [F250] | 0.114
54 | Cc1ccc(-c2noc(C3CN(C(=O)OC4(C)CC4)C3)n2)cc1NC(=O)c1cnc2ccccn12 [F126] | 0.891

same assay, conditions: Table 2; values marked *: 20% FBS instead of 1% FBS; read-out: c-kit (Mo7e)

Row | Compound | IC50 [µM]
55 | Cc1ccc(-c2noc(C3CCCCN3S(C)(=O)=O)n2)cc1NC(=O)c1cnc2ccccn12 (stereo not shown) [F110] | 0.227
